Data published in publication PMC5603853, “Physicochemical, Stress Degradation Evaluation and Pharmacokinetic Study of AZGH102, a New Synthesized COX2 Inhibitors after I.V. and Oral Administration in Male and Female Rats” (Iranian Journal of Pharmaceutical Research : IJPR, 2017).
≈ marks a conversion by molar mass, not a printed value. Read-outs that look alike come from different tables or passages of the source.

Columns and labels:
[1] = Aqueous solubility (OECD Guideline No. 105); format: physicochemical; conditions: thermodynamic from solid; water; 3 replications
Experimental: (§1) Melting point was determined with an Electrothermal 9200 apparatus (UK). Moreover, aqueous solubility and octanol/water partition coefficient of the synthesized derivative was determined according to Organisation for Economic Co-operation and Development (OECD) Guideline for Testing of Chemicals, No.105 and No. 107, respectively ([6]-[8]).

[2] = Octanol/water partition coefficient (OECD Guideline No. 107); format: physicochemical; conditions: 3 replications, read-out: log P (logarithm of octanol/water partition coefficient)
Experimental: as §1

[3] = Forced degradation stability study (ICH guideline); format: physicochemical; parameters: Forced tests results, Mean ±SD: unit not given here; conditions: for Forced tests results, Mean ±SD: n=3
Experimental: The stability study was conducted according to forced degradation protocol ICH guideline for new drug substance ([9]-[11]). The study evaluated the stability of AZGH 102 at acidic, basic, and neutral medium. Moreover, the effect of oxidative condition (H2O2, 3 and 30%), thermal degradation at solid state and photolysis on the stability of AZGH 102 was evaluated.

[4] = Pharmacokinetic study after oral administration; format: in vivo; conditions: for Cl / Ka / Vd / α (distribution rate constant) / AUC(0-inf) / Cmax / Tmax / half-life / k el: oral 20 mg/Kg; for bioavailability / AUC(0-inf) / Cmax / Tmax / half-life / k el: rat, plasma; for bioavailability: oral 20 mg/Kg vs IV 10 mg/Kg, read-out: F (absolute bioavailability); for half-life: read-out: t1/2 β (converted); for k el: read-out: β (elimination rate constant) (converted)
Experimental: (§2) Male and female Wistar rats weighting 250 ± 10 g were used. They were housed in animal center of author’s institute. Each rat was housed in a cage which was kept at 25 ± 1 °C temperature and controlled humidity with 12 h light/dark cycle. Animals were fasted overnight before the experiment and had free access to water. The study protocol was approved by the local ethics committee for animal experiments of Shahid Beheshti University of Medical Sciences (Tehran, Iran).
(§3) The rats (12 male and 12 female) were randomly divided into four groups (6 rats/group) and assigned to receive AZGH 102 solution via intravenous (IV) and/or oral administration. The administered doses in both male and female groups for IV and oral studies were 10 mg/Kg and 20 mg/Kg, respectively. Blood samples were collected from the tail vein immediately prior to (blank sample) and at 0.08, 0.25, 0.5, 1, 2, 4, 6, 8, 10, 21 and 22 h after drug administration into heparinized micro-tubes. Blood samples were centrifuged at 1000 g for 10 min and the separated plasma samples were kept at – 20 °C until analysis.
(§4) Two-compartmental model was selected and pharmacokinetic analyses were performed using WinNonlin software (Pharsight Corporation, Mountain View, USA, Version 3.2). The following pharmacokinetic parameters were estimated: terminal elimination half-life (t1/2), area under the plasma concentration versus time curve from zero to the infinity (AUC 0-∞), distribution and elimination rate constants (α, β), y intercepts (A, B), volume of distribution (Vd), and total body clearance (CL). The peak plasma concentration (Cmax) and the time to reach Cmax (Tmax) for oral dose were obtained directly from the observed individual plasma concentration-time data.

[5] = Pharmacokinetic study after intravenous administration; format: in vivo; conditions: intravenous 10 mg/Kg; for AUC(0-inf) / C0 / Vd / clearance / half-life / k el: rat, plasma; for half-life: read-out: t1/2 β (converted); for k el: read-out: β (elimination rate constant) (converted)
Experimental: as §2, §3, §4

COX-2 = conditions: in comparison with celecoxib; cited from earlier work

solubility [1]: 2.7 ± 0.09 µg/mL (≈ 6.26 µM)
logP [2]: 3.75 ± 0.001
Forced tests results, Mean ±SD ([3]; Hydrolysis (Acid), fraction recovered intact): 0.94±0.02
Forced tests results, Mean ±SD ([3]; Hydrolysis (Base)): 0.92±0.01
Forced tests results, Mean ±SD ([3]; Hydrolysis (Buffer pH=7)): 0.95±0.04
Forced tests results, Mean ±SD ([3]; Oxidative stress (H2O2-3%)): 0.94±0.02
Forced tests results, Mean ±SD ([3]; Oxidative stress (H2O2-30%)): 0.90±0.04
Forced tests results, Mean ±SD ([3]; Photodegradation (Acid)): 0.93±0.02
Forced tests results, Mean ±SD ([3]; Photodegradation (Base)): 0.96±0.04
Forced tests results, Mean ±SD ([3]; Photodegradation (Buffer pH=7)): 0.93±0.02
Forced tests results, Mean ±SD ([3]; Thermal Degradation (solid phase)): 0.95±0.03
recovered intact ([3]; in all of the examined stress conditions): more than 90%
Cl ([4]; female Wistar rats): 29.15 ± 0.47 mL/h
Ka ([4]; female Wistar rats): 1.26 ± 0.34 h⁻¹
Vd ([4]; female Wistar rats): 156.27 ± 4.54 mL
α (distribution rate constant) ([4]; female Wistar rats): 3.70 ± 1.56 h⁻¹
Cl ([4]; male Wistar rats): 27.47 ± 1.81 mL/h
Ka ([4]; male Wistar rats): 0.69 ± 0.15 h⁻¹
Vd ([4]; male Wistar rats): 147.04 ± 9.43 mL
α (distribution rate constant) ([4]; male Wistar rats): 5.79 ± 2.33 h⁻¹
bioavailability ([4]; female Wistar rats): 25.6 ± 0.4%
bioavailability ([4]; male Wistar rats): 27 ± 1.85%
AUC(0-inf) ([4]; female Wistar rats): 43900 ± 710 ng·h/mL
Cmax ([4]; female Wistar rats): 16.5 ± 1.05 µg/mL
Tmax ([4]; female Wistar rats): 0.5 h
half-life ([4]; female Wistar rats): 3.72 ± 0.1 h
k el ([4]; female Wistar rats): 5.28e-05 s⁻¹
AUC(0-inf) ([4]; male Wistar rats): 49300 ± 3380 ng·h/mL
Cmax ([4]; male Wistar rats): 19.6 ± 1.96 µg/mL
Tmax ([4]; male Wistar rats): 0.5 h
half-life ([4]; male Wistar rats): 3.71 ± 0.16 h
k el ([4]; male Wistar rats): 5.28e-05 s⁻¹
α (distribution rate constant) ([5]; female Wistar rats): 3.87 ± 1.11 h⁻¹
α (distribution rate constant) ([5]; male Wistar rats): 2.98 ± 0.67 h⁻¹
AUC(0-inf) ([5]; female Wistar rats): 85800 ± 9230 ng·h/mL
C0 ([5]; female Wistar rats): 100 ± 14.1 µg/mL
Vd ([5]; female Wistar rats): 0.101 ± 0.0137 L
clearance ([5]; female Wistar rats): 0.491 mL/min
half-life ([5]; female Wistar rats): 2.38 ± 0.12 h
k el ([5]; female Wistar rats): 0.00015 s⁻¹
AUC(0-inf) ([5]; male Wistar rats): 91300 ± 17100 ng·h/mL
C0 ([5]; male Wistar rats): 113 ± 7.99 µg/mL
Vd ([5]; male Wistar rats): 0.0997 ± 0.0152 L
clearance ([5]; male Wistar rats): 0.47 mL/min
half-life ([5]; male Wistar rats): 2.23 ± 0.74 h
k el ([5]; male Wistar rats): 8.06e-05 s⁻¹
SMILES: CS(=O)(=O)c1ccc(-c2cc(C(=O)O)c3cccc(C(=O)c4ccccc4)c3n2)cc1 [AZGH 102, 8-benzoyl-2-(4-(methylsulfonyl)phenyl)quinoline-4-carboxylic acid]
selectivity index (COX-1/COX-2 inhibitory potency) (COX-2): improved selectivity index
